Data as given in PMC9668928, “Zandelisib (ME-401) in Japanese patients with relapsed or refractory indolent non-Hodgkin’s lymphoma: an open-label, multicenter, dose-escalation phase 1 study” (International Journal of Hematology, 2022).

Tested on: Japanese patients with R/R iNHL
Assay: Phase 1 dose-escalation study: safety and tolerability (TEAEs, DLTs)
Type: in vivo
Source text: Japanese patients aged ≥ 20 years with R/R iNHL histologically confirmed as FL, nodal MZL, extra-nodal MZL of mucosa-associated lymphoid tissue, small lymphocytic lymphoma, lymphoplasmacytic lymphoma, Waldenström’s macroglobulinemia, or equivalent, according to World Health Organization classification, were eligible for this study. Other key eligibility criteria included being PI3K inhibitor therapy-naïve and an Eastern Cooperative Oncology Group performance status of 0 or 1. Further details of inclusion and exclusion criteria are provided in Supplementary Table 1.
This was a multicenter, open-label, dose-escalation, phase 1 study in Japan. All patients received oral zandelisib once daily at the same time each day, at least 1 h before or 2 h after a meal (CS: continuous schedule). Each treatment cycle was 28 days. Definitions of the DLTs described in this study can be found in Supplementary Table 2. The observation period for DLTs was from day 1 of Cycle 1 to day 1 of Cycle 2. Zandelisib was administered until disease progression or unacceptable toxicity. In the event of an AE, patients could be switched to IDT. In the case of disease progression while receiving IDT, patients could be switched back to CS per the investigator’s discretion.
A starting dose of 45 mg was set for investigating patient safety. This study adopted a standard 3 + 3 design. […] If DLTs occurred in 2 or more patients, the study was planned to be suspended pending a safety evaluation. If a DLT occurred in 1 patient, 3 further patients were added to cohort 1. If DLTs occurred in 0/3 or 1/6 patients in cohort 1, dosing in cohort 2 commenced (n = 6; 60 mg/day). If the incidence of DLTs in cohort 2 was ≤ 1/6, the maximum tolerated dose was not determined, and the dose in cohort 2 was to be selected as the recommended Japanese phase 2 dose.
The primary endpoint was the safety [number of patients with treatment-emergent adverse events (TEAEs), based on Common Terminology Criteria for Adverse Events version 5.0] and tolerability (including laboratory values, vital signs, and electrocardiogram performance) of zandelisib in Japanese patients. Hepatobiliary disorder, aspartate/alanine (AST/ALT) increased, diarrhea/colitis, organizing pneumonia, stomatitis, or rash were defined as irAEs in this manuscript. Secondary endpoints included PK (plasma concentrations and PK parameters) and the efficacy of zandelisib. […] The PK parameters for Cycle 1 day 1 and Cycle 2 day 1 were calculated for each patient by non-compartmental analysis. PK parameters included maximum plasma drug concentration (Cmax), area under the plasma concentration–time curve (AUC) from time zero to the last measurable point (AUC0–t), the AUC from time zero to infinity (AUC0-inf), and terminal half-life (t1/2).

SMILES: CN1CCC(c2ccccc2CC(C)(C)Nc2nc(N3CCOCC3)nc(-n3c(C(F)F)nc4ccccc43)n2)CC1 [zandelisib]
- TEAE Cytomegalovirus viremia, Grade ≥ 3 (Total, N = 9): 0 n (%)
- TEAE Decreased appetite, All grades (Total, N = 9): 1 (11.1) n (%)
- TEAE Decreased appetite, Grade ≥ 3 (Total, N = 9): 1 (11.1) n (%)
- TEAE Diarrhea, All grades (Total, N = 9): 4 (44.4) n (%)
- TEAE Diarrhea, Grade ≥ 3 (Total, N = 9): 3 (33.3) n (%)
- TEAE Drug hypersensitivity, All grades (Total, N = 9): 1 (11.1) n (%)
- TEAE Drug hypersensitivity, Grade ≥ 3 (Total, N = 9): 0 n (%)
- TEAE Drug-induced liver injury, All grades (Total, N = 9): 1 (11.1) n (%)
- TEAE Drug-induced liver injury, Grade ≥ 3 (Total, N = 9): 1 (11.1) n (%)
- TEAE Dry eye, All grades (Total, N = 9): 1 (11.1) n (%)
- TEAE Dry eye, Grade ≥ 3 (Total, N = 9): 0 n (%)
- TEAE Dry skin, All grades (Total, N = 9): 2 (22.2) n (%)
- TEAE Dry skin, Grade ≥ 3 (Total, N = 9): 0 n (%)
- TEAE Dysgeusia, All grades (Total, N = 9): 1 (11.1) n (%)
- TEAE Dysgeusia, Grade ≥ 3 (Total, N = 9): 0 n (%)
- TEAE Dyspnea, All grades (Total, N = 9): 1 (11.1) n (%)
- TEAE Dyspnea, Grade ≥ 3 (Total, N = 9): 1 (11.1) n (%)
- TEAE Ear and labyrinth disorders (SOC), All grades (Total, N = 9): 1 (11.1) n (%)
- TEAE Ear and labyrinth disorders (SOC), Grade ≥ 3 (Total, N = 9): 0 n (%)
- TEAE Eczema, All grades (Total, N = 9): 1 (11.1) n (%)
- TEAE Eczema, Grade ≥ 3 (Total, N = 9): 0 n (%)
- TEAE Eosinophil count increased, All grades (Total, N = 9): 1 (11.1) n (%)
- TEAE Eosinophil count increased, Grade ≥ 3 (Total, N = 9): 0 n (%)
- TEAE Erythema multiforme, All grades (Total, N = 9): 1 (11.1) n (%)
- TEAE Erythema multiforme, Grade ≥ 3 (Total, N = 9): 0 n (%)
- TEAE Eye disorders (SOC), All grades (Total, N = 9): 2 (22.2) n (%)
- TEAE Eye disorders (SOC), Grade ≥ 3 (Total, N = 9): 0 n (%)
- TEAE Flank pain, All grades (Total, N = 9): 1 (11.1) n (%)
- TEAE Flank pain, Grade ≥ 3 (Total, N = 9): 0 n (%)
- TEAE GGT increased, All grades (Total, N = 9): 1 (11.1) n (%)
- TEAE GGT increased, Grade ≥ 3 (Total, N = 9): 1 (11.1) n (%)
- TEAE Gastrointestinal disorders (SOC), All grades (Total, N = 9): 6 (66.7) n (%)
- TEAE Gastrointestinal disorders (SOC), Grade ≥ 3 (Total, N = 9): 4 (44.4) n (%)
- TEAE General disorders and administration site conditions (SOC), All grades (Total, N = 9): 1 (11.1) n (%)
- TEAE General disorders and administration site conditions (SOC), Grade ≥ 3 (Total, N = 9): 0 n (%)
- TEAE Hepatic function abnormal, All grades (Total, N = 9): 2 (22.2) n (%)
- TEAE Hepatic function abnormal, Grade ≥ 3 (Total, N = 9): 1 (11.1) n (%)
- TEAE Hepatobiliary disorders (SOC), All grades (Total, N = 9): 3 (33.3) n (%)
- TEAE Hepatobiliary disorders (SOC), Grade ≥ 3 (Total, N = 9): 2 (22.2) n (%)
- TEAE Herpes simplex, All grades (Total, N = 9): 1 (11.1) n (%)
- TEAE Herpes simplex, Grade ≥ 3 (Total, N = 9): 0 n (%)
- TEAE Herpes zoster, All grades (Total, N = 9): 1 (11.1) n (%)
- TEAE Herpes zoster, Grade ≥ 3 (Total, N = 9): 0 n (%)
- TEAE Hypoesthesia, All grades (Total, N = 9): 1 (11.1) n (%)
- TEAE Hypoesthesia, Grade ≥ 3 (Total, N = 9): 0 n (%)
- TEAE Hypogammaglobulinemia, All grades (Total, N = 9): 2 (22.2) n (%)
- TEAE Hypogammaglobulinemia, Grade ≥ 3 (Total, N = 9): 0 n (%)
- TEAE Immune system disorders (SOC), All grades (Total, N = 9): 3 (33.3) n (%)
- TEAE Immune system disorders (SOC), Grade ≥ 3 (Total, N = 9): 0 n (%)
- TEAE Infections and infestations (SOC), All grades (Total, N = 9): 6 (66.7) n (%)
- TEAE Infections and infestations (SOC), Grade ≥ 3 (Total, N = 9): 0 n (%)
- TEAE Infusion site extravasation, All grades (Total, N = 9): 1 (11.1) n (%)
- TEAE Infusion site extravasation, Grade ≥ 3 (Total, N = 9): 0 n (%)
- TEAE Insomnia, All grades (Total, N = 9): 1 (11.1) n (%)
- TEAE Insomnia, Grade ≥ 3 (Total, N = 9): 0 n (%)
- TEAE Investigations (SOC), All grades (Total, N = 9): 9 (100.0) n (%)
- TEAE Investigations (SOC), Grade ≥ 3 (Total, N = 9): 6 (66.7) n (%)
- TEAE Joint effusion, All grades (Total, N = 9): 1 (11.1) n (%)
- TEAE Joint effusion, Grade ≥ 3 (Total, N = 9): 0 n (%)
- TEAE Lymphocyte count decreased, All grades (Total, N = 9): 3 (33.3) n (%)
- TEAE Lymphocyte count decreased, Grade ≥ 3 (Total, N = 9): 1 (11.1) n (%)
- TEAE Metabolism and nutrition disorders (SOC), All grades (Total, N = 9): 1 (11.1) n (%)
- TEAE Metabolism and nutrition disorders (SOC), Grade ≥ 3 (Total, N = 9): 1 (11.1) n (%)
- TEAE Muscle spasms, All grades (Total, N = 9): 1 (11.1) n (%)
- TEAE Muscle spasms, Grade ≥ 3 (Total, N = 9): 0 n (%)
- TEAE Musculoskeletal and connective tissue disorders (SOC), All grades (Total, N = 9): 4 (44.4) n (%)
- TEAE Musculoskeletal and connective tissue disorders (SOC), Grade ≥ 3 (Total, N = 9): 0 n (%)
- TEAE Nasopharyngitis, All grades (Total, N = 9): 5 (55.6) n (%)
- TEAE Nasopharyngitis, Grade ≥ 3 (Total, N = 9): 0 n (%)
- TEAE Nausea, All grades (Total, N = 9): 3 (33.3) n (%)
- TEAE Nausea, Grade ≥ 3 (Total, N = 9): 0 n (%)
- TEAE Nervous system disorders (SOC), All grades (Total, N = 9): 1 (11.1) n (%)
- TEAE Nervous system disorders (SOC), Grade ≥ 3 (Total, N = 9): 0 n (%)
- TEAE Neutrophil count decreased, All grades (Total, N = 9): 8 (88.9) n (%)
- TEAE Neutrophil count decreased, Grade ≥ 3 (Total, N = 9): 5 (55.6) n (%)
- TEAE Oral herpes, All grades (Total, N = 9): 1 (11.1) n (%)
- TEAE Oral herpes, Grade ≥ 3 (Total, N = 9): 0 n (%)
- TEAE Organizing pneumonia, All grades (Total, N = 9): 1 (11.1) n (%)
- TEAE Organizing pneumonia, Grade ≥ 3 (Total, N = 9): 1 (11.1) n (%)
- TEAE Oropharyngeal pain, All grades (Total, N = 9): 2 (22.2) n (%)
- TEAE Oropharyngeal pain, Grade ≥ 3 (Total, N = 9): 0 n (%)
- TEAE Pancreatitis, All grades (Total, N = 9): 1 (11.1) n (%)
- TEAE Pancreatitis, Grade ≥ 3 (Total, N = 9): 1 (11.1) n (%)
- TEAE Pharyngeal paresthesia, All grades (Total, N = 9): 1 (11.1) n (%)
- TEAE Pharyngeal paresthesia, Grade ≥ 3 (Total, N = 9): 0 n (%)
- TEAE Pruritus, All grades (Total, N = 9): 1 (11.1) n (%)
- TEAE Pruritus, Grade ≥ 3 (Total, N = 9): 0 n (%)
- TEAE Psychiatric disorders (SOC), All grades (Total, N = 9): 1 (11.1) n (%)
- TEAE Psychiatric disorders (SOC), Grade ≥ 3 (Total, N = 9): 0 n (%)
- TEAE Rash maculopapular, All grades (Total, N = 9): 5 (55.6) n (%)
- TEAE Rash maculopapular, Grade ≥ 3 (Total, N = 9): 1 (11.1) n (%)
- TEAE Rash, All grades (Total, N = 9): 4 (44.4) n (%)
- TEAE Rash, Grade ≥ 3 (Total, N = 9): 0 n (%)
- TEAE Renal and urinary disorders (SOC), All grades (Total, N = 9): 1 (11.1) n (%)
- TEAE Renal and urinary disorders (SOC), Grade ≥ 3 (Total, N = 9): 0 n (%)
- TEAE Renal impairment, All grades (Total, N = 9): 1 (11.1) n (%)
- TEAE Renal impairment, Grade ≥ 3 (Total, N = 9): 0 n (%)
- TEAE Respiratory, thoracic, and mediastinal disorders (SOC), All grades (Total, N = 9): 4 (44.4) n (%)
- TEAE Respiratory, thoracic, and mediastinal disorders (SOC), Grade ≥ 3 (Total, N = 9): 1 (11.1) n (%)
- TEAE Skin and subcutaneous tissue disorders (SOC), All grades (Total, N = 9): 9 (100.0) n (%)
- TEAE Skin and subcutaneous tissue disorders (SOC), Grade ≥ 3 (Total, N = 9): 1 (11.1) n (%)
- TEAE Stomatitis, All grades (Total, N = 9): 2 (22.2) n (%)
- TEAE Stomatitis, Grade ≥ 3 (Total, N = 9): 1 (11.1) n (%)
- TEAE Subcutaneous abscess, All grades (Total, N = 9): 1 (11.1) n (%)
- TEAE Subcutaneous abscess, Grade ≥ 3 (Total, N = 9): 0 n (%)
- TEAE Tinnitus, All grades (Total, N = 9): 1 (11.1) n (%)
- TEAE Tinnitus, Grade ≥ 3 (Total, N = 9): 0 n (%)
- TEAE Urticaria, All grades (Total, N = 9): 1 (11.1) n (%)
- TEAE Urticaria, Grade ≥ 3 (Total, N = 9): 0 n (%)
- TEAE Vomiting, All grades (Total, N = 9): 2 (22.2) n (%)
- TEAE Vomiting, Grade ≥ 3 (Total, N = 9): 0 n (%)
- TEAE WBC count decreased, All grades (Total, N = 9): 4 (44.4) n (%)
- TEAE WBC count decreased, Grade ≥ 3 (Total, N = 9): 0 n (%)
- discontinued treatment due to TEAEs (cohort 1, 45 mg/day): 2 patients
- discontinued treatment due to TEAEs (cohort 2, 60 mg/day): 2 patients
- discontinuation due to irAEs (during IDT): no discontinuation due to irAEs occurred during IDT
- recurrence of Grade ≥ 3 irAEs and any grade irAEs leading to drug interruption (during IDT): 4/8
